Data taken from patent US20250263404A1, “AMINOPYRIDINES AS ACTIVATORS OF PI3 KINASE” (UCL Business Ltd, priority 2021, published 2025).

Assays:
Format in all cases: biochemical
[1] = molecular target: T1, PI3Kδ (Homo sapiens, UniProt O00329); assay: ADP-Glo in vitro lipid kinase assay, PI3Kδ
T1 construct: Full-length p110β/p85α and p110δ/p85α were cloned and expressed in a similar manner; Strep-tag followed by TEV protease site (N, cleaved yes); made in house; host or cells: Spodoptera frugiperda Sf9 (plasmids OP833 and OP809)
T1 sequence (O00329 whole entry, species assumed): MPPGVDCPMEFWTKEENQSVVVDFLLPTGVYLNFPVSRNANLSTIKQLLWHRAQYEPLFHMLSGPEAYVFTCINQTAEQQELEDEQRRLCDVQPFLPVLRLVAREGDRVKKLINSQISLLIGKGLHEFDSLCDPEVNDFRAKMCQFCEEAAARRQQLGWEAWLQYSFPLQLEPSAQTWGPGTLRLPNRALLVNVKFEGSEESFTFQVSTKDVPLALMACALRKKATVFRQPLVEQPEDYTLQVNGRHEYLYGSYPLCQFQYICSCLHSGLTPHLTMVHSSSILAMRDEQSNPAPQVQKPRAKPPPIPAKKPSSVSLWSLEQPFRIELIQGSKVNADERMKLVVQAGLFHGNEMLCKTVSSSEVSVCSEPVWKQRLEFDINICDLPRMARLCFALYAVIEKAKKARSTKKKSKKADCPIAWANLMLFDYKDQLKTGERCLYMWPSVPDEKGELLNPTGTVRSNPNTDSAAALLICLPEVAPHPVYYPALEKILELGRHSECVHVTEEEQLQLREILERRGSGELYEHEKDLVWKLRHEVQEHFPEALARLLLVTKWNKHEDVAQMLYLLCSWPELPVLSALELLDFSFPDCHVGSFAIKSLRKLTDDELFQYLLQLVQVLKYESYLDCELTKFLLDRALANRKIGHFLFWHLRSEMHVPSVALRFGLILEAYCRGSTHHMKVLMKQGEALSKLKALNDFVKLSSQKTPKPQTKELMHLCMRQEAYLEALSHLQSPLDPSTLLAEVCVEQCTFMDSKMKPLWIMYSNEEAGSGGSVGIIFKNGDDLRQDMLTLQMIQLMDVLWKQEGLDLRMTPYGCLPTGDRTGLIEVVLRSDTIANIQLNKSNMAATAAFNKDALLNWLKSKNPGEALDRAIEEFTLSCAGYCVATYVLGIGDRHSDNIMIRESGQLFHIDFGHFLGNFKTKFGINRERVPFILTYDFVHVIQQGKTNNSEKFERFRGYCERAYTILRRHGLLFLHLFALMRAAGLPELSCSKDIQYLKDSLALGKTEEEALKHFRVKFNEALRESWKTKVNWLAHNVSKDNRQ
T1 sequence (P27986 whole entry partner, species assumed): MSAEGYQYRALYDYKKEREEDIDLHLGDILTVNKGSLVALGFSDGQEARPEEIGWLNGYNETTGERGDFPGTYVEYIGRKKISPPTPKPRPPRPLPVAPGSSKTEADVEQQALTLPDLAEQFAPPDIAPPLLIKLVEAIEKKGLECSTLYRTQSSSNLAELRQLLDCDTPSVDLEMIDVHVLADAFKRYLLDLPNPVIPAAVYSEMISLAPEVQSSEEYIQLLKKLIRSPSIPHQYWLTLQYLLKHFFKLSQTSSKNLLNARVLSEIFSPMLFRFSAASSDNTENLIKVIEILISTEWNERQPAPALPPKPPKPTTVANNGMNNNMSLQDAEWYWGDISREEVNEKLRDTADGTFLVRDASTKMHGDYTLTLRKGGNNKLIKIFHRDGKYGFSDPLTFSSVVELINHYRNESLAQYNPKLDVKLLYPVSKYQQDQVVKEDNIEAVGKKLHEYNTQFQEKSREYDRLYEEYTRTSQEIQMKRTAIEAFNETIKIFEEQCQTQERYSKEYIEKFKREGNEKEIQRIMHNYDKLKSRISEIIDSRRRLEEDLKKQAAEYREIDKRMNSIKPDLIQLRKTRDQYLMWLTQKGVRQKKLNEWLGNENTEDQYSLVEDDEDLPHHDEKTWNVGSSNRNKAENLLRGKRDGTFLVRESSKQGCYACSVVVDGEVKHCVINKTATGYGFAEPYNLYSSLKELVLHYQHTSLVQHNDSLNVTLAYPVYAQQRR
Procedure: The effect of 1938 on the in vitro lipid kinase activity of p85α in complex with p110α, p110β or p110δ (further referred to as PI3Kα, PI3Kβ and PI3Kδ) was tested. As a positive control, a bis-phosphorylated phosphopeptide (a PDGF-receptor-derived peptide phosphorylated on Tyr-740 and Tyr-751, hereafter referred to as pY peptide) was used to mimic engagement of the p85α SH2 domains with tyrosine-phosphorylated peptides in membrane-bound receptors and adaptor proteins, known to activate the PI3Kα complex.
Kinase reactions were performed with ADP-Glo kinase assay kit (Promega Corporation). The enzyme, substrate and compounds were diluted in reaction buffer (20 mM HEPES, 50 mM NaCl, 50 mM KCl, 3 mM MgCl2, 1 mM EGTA, 1 mM TCEP, pH 7.4). Final concentrations of PI3Kα and PI3Kδ used were 25 nM and 50 nM for PI3Kβ. […]
For compound profiling, the reaction mixture contained 2 μl PI3K enzyme, 2 μl compound and/or pY and 2 μl of liposome substrate mixed with ATP. […] Luminescence was read using a Sense (Hidex) plate reader. […]
For characterisation of the effects of 1938 on in vitro PI3K enzymology, all reactions were performed at room temperature with 384 white-polystyrene plates (Corning #3574). […] For enzyme kinetic calculations, data was expressed as velocity (pmol of ADP generated/sec). […]

[2] = molecular target: BRK (Homo sapiens, UniProt Q13882); assay: SelectScreen kinase profiling, BRK; settings: 1 μM of 1938, 75 μM ATP
Sequence of BRK (Q13882 whole entry): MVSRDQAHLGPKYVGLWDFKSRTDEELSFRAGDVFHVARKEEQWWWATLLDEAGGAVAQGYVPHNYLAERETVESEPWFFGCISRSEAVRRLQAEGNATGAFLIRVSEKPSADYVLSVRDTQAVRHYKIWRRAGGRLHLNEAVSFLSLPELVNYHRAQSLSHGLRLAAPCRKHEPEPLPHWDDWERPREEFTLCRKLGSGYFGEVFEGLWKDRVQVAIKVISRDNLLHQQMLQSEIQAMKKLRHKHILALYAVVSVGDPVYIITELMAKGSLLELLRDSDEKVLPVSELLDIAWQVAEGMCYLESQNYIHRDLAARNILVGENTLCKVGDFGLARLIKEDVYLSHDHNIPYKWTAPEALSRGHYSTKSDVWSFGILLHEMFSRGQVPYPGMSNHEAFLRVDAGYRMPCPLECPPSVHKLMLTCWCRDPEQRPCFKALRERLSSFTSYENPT
Procedure: (§1) 133 protein kinases and 7 lipid kinases were counterscreened, with […] used at 1 μM, using the Adapta, Lantha and Z-LYTE assays (SelectScreen Kinase Profiling Service; Thermofisher—experimental details of these assays can be found here: https://www.thermofisher.com/uk/en/home/industrial/pharma-biopharma/drug-discovery-development/target-and-lead-identification-and-validation/kinasebiology/kinase-activity-assays.html. The tree representation in KinMap generated courtesy of Cell Signaling Technology, Inc. (www.cellsignal.com). mTORC1 (mTOR/RAPTOR/LST8) protein complex and ATM kinase and substrates were produced as previously described (Anandapadamanaban, M. et al. Science (New York, NY 366, 203-210 (2019); Baretic, D. et al. Sci Adv 3, e1700933 (2017). Screening of 1938 was conducted using SuperSep Phos-Tag 50 μmol/l 100×100×6.6 mm 17-well (192-18001/199-18011) gels. For ATM assays, 100 nM ATM was incubated for 30 min at 30° C. with 5 μM GST-p53 and 1 mM ATP, in the absence or presence of 200 μM 1938 in ATM Kinase Buffer (50 mM HEPES pH 7.5, 100 mM NaCl, 10% glycerol, 2 mM […], 5 mM MgCl2). […] Gels were then stained using InstantBlue™ Coomassie stain, and then quantified using BioRad Image Lab Software. […]

[3] = molecular target: T2, mTORC1 (mTOR/RAPTOR/LST8 complex) (Homo sapiens, UniProt P42345); assay: mTORC1 kinase assay (Phos-tag gel); settings: 200 μM 1938
T2 construct: made in house
Procedure: as §1

CCN1CCN(c2ccc(Nc3cc(Nc4cccc5c4N(C(C)=O)CC5)ccn3)cc2)CC1 [Example 1938]
effect on in vitro lipid kinase activity of PI3Kδ [1]: not PI3Kβ or PI3Kδ | inhibition of BRK [2]: 56% | activity of mTORC1 [3]: did not affect
